Assay results published in patent US10485235B2, “Aryloxypyrimidinyl ethers as herbicides” (FMC Corporation, priority 2015, dated 2019).

Columns and labels:
Assay type in all cases: in vivo
[1] = system: pigweed (Amaranthus retroflexus); assay: Test A preemergence, pigweed; conditions: Preemergence, 0 to 100 scale (0 no effect, 100 complete control)
Summary of the method: (§1)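 Plants grown in pots of loam blended with sand were treated either before emergence, via directed soil spray, or after emergence at the one- to two-leaf stage. Following about 10 days in the greenhouse, each treatment was visually compared with untreated controls and rated from 0 (no effect) to 100 (complete control).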

[2] = system: ryegrass, Italian (Italian ryegrass, Lolium multiflorum); assay: Test A postemergence, Italian ryegrass; conditions: postemergence, 0 to 100 scale, 0 is no effect, 100 is complete control, approximately 10 days
Summary of the method: as §1

[3] = system: pigweed (Amaranthus retroflexus); assay: Test A postemergence, pigweed; conditions: postemergence, 0 to 100 scale, 0 is no effect, 100 is complete control, approximately 10 days
Summary of the method: as §1

[4] = system: barnyardgrass (Echinochloa crus-galli); assay: Test A postemergence, barnyardgrass; conditions: postemergence, 0 to 100 scale, 0 is no effect, 100 is complete control, approximately 10 days
Summary of the method: as §1

[5] = system: ducksalad (Heteranthera limosa); assay: Test B flooded paddy test, ducksalad; conditions: 250 g ai/ha, Flood; visual rating after 13 to 15 days; scale 0 to 100, 0 is no effect, 100 is complete control
Summary of the method: (§2)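 Seedlings at the 2-leaf stage are flooded to 3 cm and treated via the paddy water. Greenhouse plants are compared with controls after 13 to 15 days and given a 0 (no effect) to 100 (complete control) rating.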

[6] = system: ryegrass, Italian (Italian ryegrass, Lolium multiflorum); assay: Test A preemergence, Italian ryegrass; conditions: Preemergence, 0 to 100 scale (0 no effect, 100 complete control)
Summary of the method: as §1

[7] = system: foxtail, giant (giant foxtail, Setaria faberii); assay: Test A preemergence, giant foxtail; conditions: Preemergence, 0 to 100 scale (0 no effect, 100 complete control)
Summary of the method: as §1

[8] = system: wheat (Triticum aestivum); assay: Test A postemergence, wheat; conditions: postemergence, 0 to 100 scale, 0 is no effect, 100 is complete control, approximately 10 days
Summary of the method: as §1

rice (Oryza sativa) = assay: Test B flooded paddy test, rice; conditions: 250 g ai/ha, Flood; visual rating after 13 to 15 days; scale 0 to 100, 0 is no effect, 100 is complete control
Summary of the method: as §2

[9] = system: ragweed (common ragweed, Ambrosia elatior); assay: Test A preemergence, ragweed; conditions: Preemergence, 0 to 100 scale (0 no effect, 100 complete control)
Summary of the method: as §1

[10] = system: foxtail, giant (giant foxtail, Setaria faberii); assay: Test A postemergence, giant foxtail; conditions: postemergence, 0 to 100 scale, 0 is no effect, 100 is complete control, approximately 10 days
Summary of the method: as §1

[11] = system: blackgrass (Alopecurus myosuroides); assay: Test A postemergence, blackgrass; conditions: postemergence, 0 to 100 scale, 0 is no effect, 100 is complete control, approximately 10 days
Summary of the method: as §1

corn (Zea mays) = assay: Test A postemergence, corn; conditions: postemergence, 0 to 100 scale, 0 is no effect, 100 is complete control, approximately 10 days
Summary of the method: as §1

kochia (Kochia scoparia) [12] = assay: Test A preemergence, kochia; conditions: Preemergence, 0 to 100 scale (0 no effect, 100 complete control)
Summary of the method: as §1

[13] = system: sedge, umbrella (small-flower umbrella sedge, Cyperus difformis); assay: Test B flooded paddy test, umbrella sedge; conditions: 250 g ai/ha, Flood; visual rating after 13 to 15 days; scale 0 to 100, 0 is no effect, 100 is complete control
Summary of the method: as §2

[14] = system: barnyardgrass (Echinochloa crus-galli); assay: Test B flooded paddy test, barnyardgrass; conditions: 250 g ai/ha, Flood; visual rating after 13 to 15 days; scale 0 to 100, 0 is no effect, 100 is complete control
Summary of the method: as §2

[15] = system: ragweed (common ragweed, Ambrosia elatior); assay: Test A postemergence, ragweed; conditions: postemergence, 0 to 100 scale, 0 is no effect, 100 is complete control, approximately 10 days
Summary of the method: as §1

[16] = system: galium (catchweed bedstraw, Galium aparine); assay: Test A postemergence, galium; conditions: postemergence, 0 to 100 scale, 0 is no effect, 100 is complete control, approximately 10 days
Summary of the method: as §1

[17] = system: barnyardgrass (Echinochloa crus-galli); assay: Test A preemergence, barnyardgrass; conditions: Preemergence, 0 to 100 scale (0 no effect, 100 complete control)
Summary of the method: as §1

kochia (Kochia scoparia) [18] = assay: Test A postemergence, kochia; conditions: postemergence, 0 to 100 scale, 0 is no effect, 100 is complete control, approximately 10 days
Summary of the method: as §1

| SMILES | Plant response rating, Pigweed ([1]; 31 g ai/ha) | Plant response rating, Pigweed ([1]; 125 g ai/ha) | Plant response rating, Ryegrass, Italian ([2]; 31 g ai/ha) | Plant response rating, Ryegrass, Italian ([2]; 125 g ai/ha) | Plant response rating, Pigweed ([3]; 31 g ai/ha) | Plant response rating, Pigweed ([3]; 125 g ai/ha) | Plant response rating, Barnyardgrass ([4]; 31 g ai/ha) | Plant response rating, Barnyardgrass ([4]; 125 g ai/ha) | Plant response rating, Ducksalad [5] | Plant response rating, Ryegrass, Italian ([6]; 31 g ai/ha) | Plant response rating, Ryegrass, Italian ([6]; 125 g ai/ha) | Plant response rating, Foxtail, Giant ([7]; 31 g ai/ha) | Plant response rating, Foxtail, Giant ([7]; 125 g ai/ha) | Plant response rating, Wheat ([8]; 31 g ai/ha) | Plant response rating, Wheat ([8]; 125 g ai/ha) | Plant response rating, Rice (rice (Oryza sativa)) | Plant response rating, Ragweed ([9]; 31 g ai/ha) | Plant response rating, Ragweed ([9]; 125 g ai/ha) | Plant response rating, Foxtail, Giant ([10]; 31 g ai/ha) | Plant response rating, Foxtail, Giant ([10]; 125 g ai/ha) | other results |
| --- | --- | --- | --- | --- | --- | --- | --- | --- | --- | --- | --- | --- | --- | --- | --- | --- | --- | --- | --- | --- | --- |
| FC(F)(F)/C=C/COc1c(I)cccc1Oc1ncc(Cl)cn1 [Compound 61] | 0 | 70 | 0 | 0 | 80 | 90 | 0 | 50 | 100 | 0 | 0 | 0 | 80 | 0 | 0 | 25 | 0 | 0 | 0 | 30 | Plant response rating, Blackgrass ([11]; 31 g ai/ha): 0; Plant response rating, Blackgrass ([11]; 125 g ai/ha): 0; Plant response rating, Corn (corn (Zea mays); 31 g ai/ha): 10; Plant response rating, Corn (corn (Zea mays); 125 g ai/ha): 30; Plant response rating, Kochia (kochia (Kochia scoparia) [12]; 31 g ai/ha): 0; Plant response rating, Kochia (kochia (Kochia scoparia) [12]; 125 g ai/ha): 0; Plant response rating, Sedge, Umbrella [13]: 95; Plant response rating, Barnyardgrass [14]: 20; Plant response rating, Ragweed ([15]; 31 g ai/ha): 0; Plant response rating, Ragweed ([15]; 125 g ai/ha): 0; Plant response rating, Galium ([16]; 31 g ai/ha): 20; Plant response rating, Galium ([16]; 125 g ai/ha): 50; Plant response rating, Barnyardgrass ([17]; 31 g ai/ha): 0; Plant response rating, Barnyardgrass ([17]; 125 g ai/ha): 20; Plant response rating, Kochia (kochia (Kochia scoparia) [18]; 31 g ai/ha): 40; Plant response rating, Kochia (kochia (Kochia scoparia) [18]; 125 g ai/ha): 90 |
| N#Cc1cccc(Oc2ncc(Cl)cn2)c1OCC(=O)CCC(F)(F)F [Compound 62] | 0 | 0 | 0 | 0 | 0 | 0 | 0 | 0 | 0 | 0 | 0 | 0 | 0 | 0 | 0 | 0 | 0 | 0 | 0 | 0 | Plant response rating, Blackgrass ([11]; 31 g ai/ha): 0; Plant response rating, Blackgrass ([11]; 125 g ai/ha): 0; Plant response rating, Corn (corn (Zea mays); 31 g ai/ha): 0; Plant response rating, Corn (corn (Zea mays); 125 g ai/ha): 0; Plant response rating, Kochia (kochia (Kochia scoparia) [12]; 31 g ai/ha): 0; Plant response rating, Kochia (kochia (Kochia scoparia) [12]; 125 g ai/ha): 0; Plant response rating, Sedge, Umbrella [13]: 0; Plant response rating, Barnyardgrass [14]: 0; Plant response rating, Ragweed ([15]; 31 g ai/ha): 0; Plant response rating, Ragweed ([15]; 125 g ai/ha): 0; Plant response rating, Galium ([16]; 31 g ai/ha): 0; Plant response rating, Galium ([16]; 125 g ai/ha): 0; Plant response rating, Barnyardgrass ([17]; 31 g ai/ha): 0; Plant response rating, Barnyardgrass ([17]; 125 g ai/ha): 0; Plant response rating, Kochia (kochia (Kochia scoparia) [18]; 31 g ai/ha): 0; Plant response rating, Kochia (kochia (Kochia scoparia) [18]; 125 g ai/ha): 0 |
| Cc1cccc(Oc2ncc(Cl)cn2)c1OCCC(F)(F)F [Compound 64] | 0 | 100 | 0 | 0 | 20 | 30 | 0 | 10 | 85 | 0 | 0 | 0 | 20 | 0 | 0 | 20 | 0 | 0 | 0 | 10 | Plant response rating, Blackgrass ([11]; 31 g ai/ha): 0; Plant response rating, Blackgrass ([11]; 125 g ai/ha): 10; Plant response rating, Corn (corn (Zea mays); 31 g ai/ha): 0; Plant response rating, Corn (corn (Zea mays); 125 g ai/ha): 10; Plant response rating, Kochia (kochia (Kochia scoparia) [12]; 31 g ai/ha): 0; Plant response rating, Kochia (kochia (Kochia scoparia) [12]; 125 g ai/ha): 0; Plant response rating, Sedge, Umbrella [13]: 90; Plant response rating, Barnyardgrass [14]: 0; Plant response rating, Ragweed ([15]; 31 g ai/ha): 0; Plant response rating, Ragweed ([15]; 125 g ai/ha): 0; Plant response rating, Galium ([16]; 31 g ai/ha): 0; Plant response rating, Galium ([16]; 125 g ai/ha): 0; Plant response rating, Barnyardgrass ([17]; 31 g ai/ha): 10; Plant response rating, Barnyardgrass ([17]; 125 g ai/ha): 60; Plant response rating, Kochia (kochia (Kochia scoparia) [18]; 31 g ai/ha): 10; Plant response rating, Kochia (kochia (Kochia scoparia) [18]; 125 g ai/ha): 20 |
